From patent US11629171B2, “Beta-hairpin peptidomimetics” (POLYPHOR AG, priority 2017, dated 2023) come the findings set out here.

Converted amounts (≈) assume the structure as drawn. Where a SMILES comes first, the peptide text is derived from it. Bridges are numbered along the chain shown (N, C = ends). Roman numbers before positions name the chains, in order. [ ]: non-standard residue; d: D form. The star is where a group is joined. Thr(ol) = C[C@@H](O)[C@H](N)CO; Pen = CC(C)(S)[C@H](N)C(=O)O; Tle = CC(C)(C)[C@H](N)C(=O)O; Hiv = CC(C)[C@H](O)C(=O)O; dDab = NCC[C@@H](N)C(=O)O; hSer = N[C@@H](CCO)C(=O)O; Dab = NCC[C@H](N)C(=O)O; Dap = NC[C@H](N)C(=O)O; NHCH2CH2OH = OCCN* Some results are limits rather than exact numbers.

Assay type in all cases: cell-based
Data set [1] relates to Enterobacter cloacae 848840. The settings on record: 848840. The method in brief: (§1)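 CLSI broth microdilution: inoculum ~10^6 CFU/mL in cation-adjusted Mueller-Hinton II broth, with peptide in serial two-fold dilutions plus Polysorbate 80 (0.002% final). MIC (μg/mL) is the lowest concentration without visible growth after 18-20 hours at 35° C.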
Data set [2] has as its system Klebsiella pneumoniae SSI #3010. The settings on record: SSI #3010. The method in brief:
as §1

For data set [3], the system named is Acinetobacter baumannii DSM 30008. The settings on record: DSM 30008. The method in brief: as §1
Data set [4] relates to Escherichia coli ATCC 25922. Conditions: ATCC 25922. The method in brief:
as §1

Data set [5] deals with Acinetobacter baumannii 872842. The settings on record: 872842. In outline: as §1
A further data set concerns Escherichia coli 926415. Conditions: 926415. The method in brief:
as §1

The test system of data set [6] is Pseudomonas aeruginosa ATCC 27853. The settings on record: ATCC 27853. In outline: as §1
Data set [7] concerns Klebsiella pneumoniae 968733. The settings on record: 968733. In outline:
as §1

In data set [8] the test system is human red blood cells (hRBC). As to the kind of experiment: Hemolysis. Conditions: red cells of human, 1 h, 200. In outline:
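Washed fresh hRBC (20% v/v) were incubated with peptides at 200 μg/mL for 1 h at 37° C with shaking at 300 rpm. Supernatant OD540 was read after centrifugation and dilution, blank-corrected, and expressed as percent of the 2% Triton X-100 (100% lysis) control; PBS with 10% water gave 0%.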

As for `CC(C)C[C@@H]1NC(=O)[C@@H](CC(C)C)NC(=O)[C@H](CCN)NC(=O)[C@@H](NC(=O)[C@H](CCN)NC(=O)[C@@H](NC(=O)[C@H](CCN)NC(=O)CC[C@@H]2NC(=O)[C@H](CCN)NC(=O)[C@H](Cc3ccc(O)cc3)NC(=O)[C@@H](NC(=O)[C@@H](N)C(C)C)CSSC[C@@H](C(=O)N[C@@H](CO)C(=O)O)NC(=O)[C@H](C(C)(C)C)NC(=O)[C@H](CO)NC(=O)[C@H](Cc3c[nH]c4ccccc34)NC(=O)[C@H]([C@@H](C)O)NC(=O)[C@@H](CCN)NC2=O)[C@@H](C)O)CCNC(=O)[C@H]([C@@H](C)O)NC(=O)[C@H](CCN)NC(=O)[C@H](CCN)NC1=O` [Ex. 53] (I: H-VCY[Dab]E[dDab]TWS[Tle]CS-OH / II: [Dab]T[Dab][Dab][Dab][dL]L[Dab][Dab]T; disulfide I:2-I:11; amide I:5-II:N; lactam II:4-II:C), the MIC (as a rule, the lowest concentration that inhibits growth of the organism) in data set [1] amounted to 8 µg/mL (≈ 3.33 µM); in data set [2], 0.125 µg/mL (≈ 0.0521 µM); in data set [3] it was 0.25 µg/mL (≈ 0.104 µM); in [4], 0.125 µg/mL (≈ 0.0521 µM); in data set [5], 0.5 µg/mL (≈ 0.208 µM); in the data set with Escherichia coli 926415, 0.5 µg/mL (≈ 0.208 µM). Further, the MIC in data set [6] amounted to 0.125 µg/mL (≈ 0.0521 µM); in data set [7], 4 µg/mL (≈ 1.67 µM). Besides, the “Hemolysis at 200 μg/mL” value in [8] is on record as below 1%.
In the case of `CC(C)C[C@@H]1NC(=O)[C@@H](CC(C)C)NC(=O)[C@H](CCN)NC(=O)[C@@H](NC(=O)[C@H](CCN)NC(=O)[C@@H](NC(=O)[C@H](CCN)NC(=O)CC[C@@H]2NC(=O)[C@H](CCN)NC(=O)[C@H](Cc3ccc(O)cc3)NC(=O)[C@@H](NC(=O)[C@@H](N)C(C)C)C(C)(C)SSC[C@@H](C(=O)N[C@@H](CO)C(=O)O)NC(=O)[C@H](C(C)(C)C)NC(=O)[C@H](CO)NC(=O)[C@H](Cc3c[nH]c4ccccc34)NC(=O)[C@H]([C@@H](C)O)NC(=O)[C@@H](CCN)NC2=O)[C@@H](C)O)CCNC(=O)[C@H]([C@@H](C)O)NC(=O)[C@H](CCN)NC(=O)[C@H](CCN)NC1=O` [Ex. 54] (I: H-V[Pen]Y[Dab]E[dDab]TWS[Tle]CS-OH / II: [Dab]T[Dab][Dab][Dab][dL]L[Dab][Dab]T; disulfide I:2-I:11; amide I:5-II:N; lactam II:4-II:C), the MIC in [1] was found to be 4 µg/mL (≈ 1.65 µM); in data set [2] it was 0.25 µg/mL (≈ 0.103 µM); in data set [3], 0.25 µg/mL (≈ 0.103 µM); in data set [4], 0.0625 µg/mL (≈ 0.0257 µM); in data set [5] it was 0.5 µg/mL (≈ 0.206 µM); against Escherichia coli 926415 it was 0.5 µg/mL (≈ 0.206 µM). For the same compound, the minimum inhibitory concentration (MIC) in data set [6] came to 0.25 µg/mL (≈ 0.103 µM); in data set [7], 4 µg/mL (≈ 1.65 µM). Moreover, the “Hemolysis at 200 μg/mL” value in [8] was below 1%.
Consider `CC(C)C[C@@H]1NC(=O)[C@@H](CC(C)C)NC(=O)[C@H](CCN)NC(=O)[C@@H](NC(=O)[C@H](CCN)NC(=O)[C@@H](NC(=O)[C@H](CCN)NC(=O)CC[C@@H]2NC(=O)[C@H](CCN)NC(=O)[C@H](Cc3ccc(O)cc3)NC(=O)[C@@H](NC(=O)[C@@H](N)C(C)C)CC(=O)NCC[C@@H](C(=O)N[C@@H](CO)C(=O)O)NC(=O)[C@H](C(C)(C)C)NC(=O)[C@H](CO)NC(=O)[C@H](Cc3c[nH]c4ccccc34)NC(=O)[C@H]([C@@H](C)O)NC(=O)[C@@H](CCN)NC2=O)[C@@H](C)O)CCNC(=O)[C@H]([C@@H](C)O)NC(=O)[C@H](CCN)NC(=O)[C@H](CCN)NC1=O` [Ex. 55] (I: H-VDY[Dab]E[dDab]TWS[Tle][Dab]S-OH / II: [Dab]T[Dab][Dab][Dab][dL]L[Dab][Dab]T; lactam I:2-I:11, II:4-II:C; amide I:5-II:N), for which the MIC in data set [1] stood at 8 µg/mL (≈ 3.34 µM); in data set [2] it was 0.5 µg/mL (≈ 0.209 µM); in [3], 0.5 µg/mL (≈ 0.209 µM); in data set [4] it was 0.25 µg/mL (≈ 0.104 µM); in data set [5], 1 µg/mL (≈ 0.418 µM); against Escherichia coli 926415, 1 µg/mL (≈ 0.418 µM). Also, the minimum inhibitory concentration (MIC) in data set [6] is 0.25 µg/mL (≈ 0.104 µM); in [7], 8 µg/mL (≈ 3.34 µM). Besides, in data set [8], the “Hemolysis at 200 μg/mL” value came to 2%.
As for `CC(C)C[C@@H]1NC(=O)[C@@H](CC(C)C)NC(=O)[C@H](CCN)NC(=O)[C@@H](NC(=O)[C@H](CCN)NC(=O)[C@H](CO)NC(=O)[C@H](CCN)NC(=O)CC[C@@H]2NC(=O)[C@H](CN)NC(=O)[C@H](Cc3ccc(O)cc3)NC(=O)[C@@H](NC(=O)[C@@H](O)C(C)C)CSSC[C@@H](C(=O)NCCO)NC(=O)[C@H](C(C)(C)C)NC(=O)[C@H](CO)NC(=O)[C@H](Cc3c[nH]c4ccccc34)NC(=O)[C@H]([C@@H](C)O)NC(=O)[C@@H](CCN)NC2=O)CCNC(=O)[C@H]([C@@H](C)O)NC(=O)[C@H](CCN)NC(=O)[C@H](CCN)NC1=O` [Ex. 59] (I: H-[Hiv]CY[Dap]E[dDab]TWS[Tle]C-NHCH2CH2OH / II: [Dab]S[Dab][Dab][Dab][dL]L[Dab][Dab]T; disulfide I:2-I:11; amide I:5-II:N; lactam II:4-II:C), the minimum inhibitory concentration (MIC) was determined as 1 µg/mL (≈ 0.429 µM) in [1]; 0.125 µg/mL (≈ 0.0537 µM) in [2]; 0.125 µg/mL (≈ 0.0537 µM) in data set [3]; 0.125 µg/mL (≈ 0.0537 µM) in data set [4]; 0.25 µg/mL (≈ 0.107 µM) in data set [5]; 0.125 µg/mL (≈ 0.0537 µM) against Escherichia coli 926415. The MIC in data set [6] was found to be 0.125 µg/mL (≈ 0.0537 µM); in [7], 0.25 µg/mL (≈ 0.107 µM). Further, in data set [8], the “Hemolysis at 200 μg/mL” value is below 1%.
Regarding `CC(C)C[C@@H]1NC(=O)[C@@H](CC(C)C)NC(=O)[C@H](CCN)NC(=O)[C@@H](NC(=O)[C@H](CCN)NC(=O)[C@H](CO)NC(=O)[C@H](CCN)NC(=O)CC[C@@H]2NC(=O)[C@H](CCN)NC(=O)[C@H](Cc3ccc(O)cc3)NC(=O)[C@@H](NC(=O)[C@@H](O)C(C)C)CSSC[C@@H](C(=O)N[C@H](CO)[C@@H](C)O)NC(=O)[C@H](C(C)(C)C)NC(=O)[C@H](CO)NC(=O)[C@H](Cc3c[nH]c4ccccc34)NC(=O)[C@H](CCO)NC(=O)[C@@H](CCN)NC2=O)CCNC(=O)[C@H]([C@@H](C)O)NC(=O)[C@H](CCN)NC(=O)[C@H](CCN)NC1=O` [Ex. 60] (I: H-[Hiv]CY[Dab]E[dDab][hSer]WS[Tle]C[Thr(ol)] / II: [Dab]S[Dab][Dab][Dab][dL]L[Dab][Dab]T; disulfide I:2-I:11; amide I:5-II:N; lactam II:4-II:C), the MIC was 4 µg/mL (≈ 1.68 µM) in data set [1]; 0.125 µg/mL (≈ 0.0524 µM) in data set [2]; 0.0625 µg/mL (≈ 0.0262 µM) in data set [3]; 0.0625 µg/mL (≈ 0.0262 µM) in [4]; 0.125 µg/mL (≈ 0.0524 µM) in data set [5]; 0.125 µg/mL (≈ 0.0524 µM) in the data set with Escherichia coli 926415. Further, the minimal inhibitory concentration (MIC) in data set [6] and in data set [7] was 0.125 µg/mL (≈ 0.0524 µM) throughout. Besides, the “Hemolysis at 200 μg/mL” value in [8] was below 1%.
